Assay results as given in the SangsterLogP compilation.

Assay: method code SF-HPLC, from DOI: 10.1016/j.ecoenv.2011.11.024
Settings: pH 2.0

Row | SMILES | logD
1 | Cc1cccc(S)c1 | 3.13
2 | Sc1ccc(Br)cc1 | 2.72
3 | Fc1cccc(S)c1 | 2.12
4 | Sc1ccc(Cl)cc1Cl | 2.49
5 | Sc1cccc(Br)c1 | 2.48
6 | Sc1ccc(Cl)cc1 | 2.66
7 | COc1ccc(S)cc1OC | 3.32
8 | Cc1ccc(C)c(S)c1 | 3.92
9 | Sc1cccc(Cl)c1Cl | 2.44
10 | Cc1ccc(S)cc1C | 3.62
11 | Cc1ccc(S)cc1 | 3.27
12 | Sc1ccccc1Cl | 2.27

Other lines, results leading:

Row | logD | SMILES
13 | 2.93 | COc1cccc(S)c1
14 | 2.43 | Sc1cc(Cl)cc(Cl)c1
15 | 2.35 | Sc1c(Cl)cccc1Cl
16 | 2.44 | Sc1ccccc1Br
17 | 4.02 | Cc1cccc(C)c1S
18 | 3.52 | Cc1ccccc1S
19 | 2.48 | Sc1cc(Cl)ccc1Cl
20 | 2.92 | Fc1ccc(S)cc1
21 | 1.9 | Fc1ccccc1S
22 | 2.47 | Sc1cccc(Cl)c1
23 | 3.77 | Cc1ccc(S)c(C)c1
24 | 1.76 | Fc1cc(F)c(F)c(S)c1F
